The values below come from patent US9040714B2 (MannKind Corporation, priority 2010, dated 2015).

The subject of assay [1] is XBP-1 splicing in RPMI 8226 cells. The experiment in a line: Inhibition of thapsigargin-induced endogenous XBP-1 splicing in RPMI 8226 cells (RT-PCR). It counts as cell-based, human. The conditions noted are these: 300 nM, 2 hours. As to the method:
PCR amplification products were run on a 4% agarose gel and stained with ethidium bromide. The inverse image is shown.
Cell Culture. RPMI 8226 cells were grown in monolayer culture using Dulbecco's Modified Eagle Medium (DMEM) supplemented with 10% fetal calf serum (FCS) at 37° C. and 5% CO2. Compounds were kept as 10 mM stock in DMSO at −20° C. and diluted in medium to 10 μM, Thapsigargin (Tg) was resuspended in DMSO and diluted in medium,
RT-qPCR. Procedures for measuring XBP-1s and XBP-1u mRNAs have been described previously (Volkmann et al., J. Biol. Chem. 286, 12743-55, 2011). Briefly, total RNA was harvested from cells or tissue using TRIZOL® (Invitrogen) according to the manufacture's procedures. After ethanol, precipitation and resuspension of the RNA, RIBOGREEN® (Invitrogen) was used to quantify the yield—and normalize the RNA concentration in the source tube containing isolated RNA. RT-PCR was performed by oligo dT priming, […]® II (Invitrogen) and reverse transcription using the […] GOLD® Kit (Applied Biosystems) according to the manufacturer's protocols. Primers for human XBP-1 were
All DNA oligos were purchased from IDT DNA Technologies. PCR reactions were run on a Bio-Rad PTC-100® 96-well thermocycler; heating at 94° C. for 30 seconds, annealing at 58° C. for 30 seconds polymerizing at 72° C. for 30 seconds for 35 cycles. […]

The test system of assay [2] is XBP-1 splicing in liver and kidney. The experiment in a line: XBP-1 splicing inhibition in livers and kidneys of mice after tunicamycin. It counts as in vivo, CB17 SCID mice. Particulars: 1 mg/kg IP, relative to PBS treated mice. An excerpt: The preclinical validation strategy employs a set of animal models representing normal tissues under chemical stress and multiple myeloma xenography. The normal animal model is employed as a surrogate model where dose-related on-target activity of compounds can be confirmed in tissues sensitive to standard UPR inducing agents such as tunicamycin (Wu et al., Dev Cell. 2007 September; 13 (1d):351-64). […] Upon induction with tunicamycin, tissues induce active XBP-1 mRNA, splicing, and this activity is suppressed by IRE-1α inhibitors. This on-target ER stress animal model is a useful screening and early pharmacokinetic tool.
CB17 SCID mice were treated with 1 mg/kg tunicamycin by intraperitoneal (IP) injection at time 0 (T=0). Two hours later, compound A formulated in 10% hydroxy beta propyl cyclo dextran HBPCD was administered by IP injection. Doses were 50 mg/kg, 25 mg/kg and 10 mg/kg (4 mice in each group). Mice were sacrificed two hours later (4 hours from T=0), and the designated organs were harvested (FIG. 3A).
RT-PCR analysis was performed using murine-specific XBP-1 primers from total RNA harvested from specified organs. […] Each lane represents an individual mouse where RNA was harvested and RT-PCR was performed. Method of RNA extraction and RT-PCR analysis is described in Volkmann et al., J. Biol. Chem. 286, 12743-55, 2011. […]

Assay [3] has as its system human myeloma RPMI8226 tumor xenografts. The experiment in a line: RPMI8226 xenograft efficacy model. It counts as in vivo, SCID mice. Particulars: 0.75 mg/kg IV twice weekly. As to the method: SCID mice are evaluated for their ability to support implantation of desired tumor cells in support of model development and characterization. Mice are injected intravenously […] or implanted either subcutaneously (SC) or intraperitoneally (IP). To generate a relevant animal model mimicking human disease, it is desirable that all three approaches are evaluated for improved implantation rates and relevant disease progression, as is well known in the art. SC injections provide an easy way to measure tumor growth and efficacy, and IV and IP injections represent a more physiologically relevant model of human tumor spread. SC injections are given primarily in the flank, while IV injections are administered in the tail vein. Mice are manually restrained for SC and IP injections, and a Broome mouse restrainer is used for IV injections.
SCID mice are implanted with tumor cells (human RPMI8226 myeloma cells) via IP, IV or SC routes based on the results from the xenograft model development studies (above). Mice are treated with compound or mock treated (vehicle) for a period of up to 4-5 weeks. Compound administration can be via IV, IP, PO or SC routes. […]
Mice are monitored for tumor growth, regression and general health. […] Tumor growth is measured by calipers, ultrasound, or by abdominal lavage. Biomarkers in the blood or tumor can evaluated (primarily XBP-1 splicing). […]

For the compound `C/C=C(/C)C(=O)O[C@H]1C(C)=C2[C@H]([C@@H]1OC(=O)CCCCCCC)[C@@](C)(OC(C)=O)C[C@H](OC(=O)CCC)[C@@]1(O)[C@H]2OC(=O)[C@@]1(C)O` [Thapsigargin], the “induction of XBP-1s” value in assay [1] is recorded as “near complete conversion of XBP-1u to XBP-1s”. As to tunicamycin, in assay [2], the “induction of XBP-1 spliced (XBP-1s)” value is listed as “induces XBP-1 spliced (XBP-1s)”. As for `CC(C)C[C@H](NC(=O)[C@H](Cc1ccccc1)NC(=O)c1cnccn1)B(O)O` [bortezomib, [(1R)-3-methyl-1-[[(2S)-1-oxo-3-phenyl-2-[(pyrazinylcarbonyl)amino]propyl]amino]butyl]boronic acid], the tumor growth result in assay [3] is given as “suppression of tumor growth”.
